Results from ChEMBL document CHEMBL1201862, “PubChem BioAssay data set” (2004).
Calls of active or inactive are those of the source.

Assays:
[1] = tested on: Streptococcus sp. 'group A'; assay: growth inhibition of control SK(-) GAS strain, dose response, counter-screen for streptokinase expression inhibitor project, luminescence, kanamycin, BacTiterGlo, confirmation (AID 1900); type: functional, organism-based
Streptococcus [2] = assay: Luminescence Microorganism-Based Dose Response Follow up to Identify Compounds Cytotoxic to Streptococcus. [Related pubchem assays: 1677 (Project Summary), 1915, 1914, 1902 (Retest at Dose), 1900 (Counter Screen), 1662 (Primary HTS)]; type: functional, organism-based
Streptokinase A = molecular target: T1, Streptokinase A (Streptococcus pyogenes serotype M1, UniProt P10520); assay: S. pyogenes streptokinase expression inhibitors, potency, dose response, plasminogen activation absorbance, OD405 (AID 1914); type: functional, Streptococcus pyogenes M1 GAS;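 also: secreted streptokinase activity via plasminogen activation per viability signal from cell pellet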
T1 sequence (P10520 whole entry): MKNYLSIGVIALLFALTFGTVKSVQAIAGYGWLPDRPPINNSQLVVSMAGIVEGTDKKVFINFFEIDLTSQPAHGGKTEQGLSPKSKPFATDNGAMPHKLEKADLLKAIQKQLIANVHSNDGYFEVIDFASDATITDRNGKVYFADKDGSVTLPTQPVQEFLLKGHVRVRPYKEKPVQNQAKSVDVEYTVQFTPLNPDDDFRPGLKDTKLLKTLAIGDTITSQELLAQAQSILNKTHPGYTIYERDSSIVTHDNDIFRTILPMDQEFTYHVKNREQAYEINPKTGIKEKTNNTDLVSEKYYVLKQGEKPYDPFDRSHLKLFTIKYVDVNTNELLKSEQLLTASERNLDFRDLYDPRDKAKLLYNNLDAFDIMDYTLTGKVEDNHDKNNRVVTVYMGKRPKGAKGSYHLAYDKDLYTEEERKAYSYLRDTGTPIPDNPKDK

Streptococcus [3] = assay: Group A Streptococcus viability loss, dose response, counter-screen for streptokinase expression inhibitor project, luminescence, BacTiterGlo (AID 1915); type: functional, organism-based;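 also: potency for reduction of bacterial viability or growth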
[4] = molecular target: Neuropeptides B/W receptor type 1 (Homo sapiens, UniProt P48145); assay: Fluorescence-based dose response cell-based high throughput screening assay to identify antagonists of the G-protein coupled receptor 7 (GPR7). [Related pubchem assays: 1952 (Screening assay (GPR7 antagonists).), 1880 (Summary AID.)]; type: functional
Neuropeptides B/W receptor type 1, sequence (P48145 whole entry): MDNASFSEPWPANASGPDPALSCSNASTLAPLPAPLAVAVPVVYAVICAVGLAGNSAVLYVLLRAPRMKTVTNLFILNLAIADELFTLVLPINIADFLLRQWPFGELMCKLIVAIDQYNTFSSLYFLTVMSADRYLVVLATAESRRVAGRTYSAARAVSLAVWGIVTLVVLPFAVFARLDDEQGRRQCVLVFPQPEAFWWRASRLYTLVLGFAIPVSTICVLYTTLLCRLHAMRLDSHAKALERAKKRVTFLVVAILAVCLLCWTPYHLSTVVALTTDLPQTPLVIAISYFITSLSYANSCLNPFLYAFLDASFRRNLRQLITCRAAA

[5] = molecular target: Melanin-concentrating hormone receptor 1 (Homo sapiens, UniProt Q99705); assay: Fluorescence-based counterscreen for antagonists of the G-protein coupled receptor 7 (GPR7): cell-based high throughput dose response assay to identify antagonists of the melanin-concentrating hormone receptor 1 (MCHR1).; type: functional
Melanin-concentrating hormone receptor 1, sequence (Q99705 whole entry): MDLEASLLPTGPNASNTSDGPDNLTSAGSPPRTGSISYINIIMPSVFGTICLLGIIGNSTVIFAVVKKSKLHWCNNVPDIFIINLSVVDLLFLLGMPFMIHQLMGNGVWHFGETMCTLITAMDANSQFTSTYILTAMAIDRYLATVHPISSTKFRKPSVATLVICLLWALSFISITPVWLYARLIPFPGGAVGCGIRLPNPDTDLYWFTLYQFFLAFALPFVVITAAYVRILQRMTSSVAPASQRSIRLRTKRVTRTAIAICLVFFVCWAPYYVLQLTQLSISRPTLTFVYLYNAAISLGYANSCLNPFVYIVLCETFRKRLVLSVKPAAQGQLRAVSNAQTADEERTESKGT

[6] = molecular target: Eukaryotic translation initiation factor 4H (Homo sapiens, UniProt Q15056); assay: human eIF4H binding inhibitors, primary screen, translation initiation inhibitor project, biochemical, uHTS, fluorescence polarization (AID 2012)
[7] = molecular target: Polyadenylate-binding protein 1 (Homo sapiens, UniProt P11940); assay: PABP poly(A) RNA binding inhibitors, primary screen, biochemical, fluorescence polarization, uHTS (AID 2014)
Polyadenylate-binding protein 1, sequence (P11940 whole entry): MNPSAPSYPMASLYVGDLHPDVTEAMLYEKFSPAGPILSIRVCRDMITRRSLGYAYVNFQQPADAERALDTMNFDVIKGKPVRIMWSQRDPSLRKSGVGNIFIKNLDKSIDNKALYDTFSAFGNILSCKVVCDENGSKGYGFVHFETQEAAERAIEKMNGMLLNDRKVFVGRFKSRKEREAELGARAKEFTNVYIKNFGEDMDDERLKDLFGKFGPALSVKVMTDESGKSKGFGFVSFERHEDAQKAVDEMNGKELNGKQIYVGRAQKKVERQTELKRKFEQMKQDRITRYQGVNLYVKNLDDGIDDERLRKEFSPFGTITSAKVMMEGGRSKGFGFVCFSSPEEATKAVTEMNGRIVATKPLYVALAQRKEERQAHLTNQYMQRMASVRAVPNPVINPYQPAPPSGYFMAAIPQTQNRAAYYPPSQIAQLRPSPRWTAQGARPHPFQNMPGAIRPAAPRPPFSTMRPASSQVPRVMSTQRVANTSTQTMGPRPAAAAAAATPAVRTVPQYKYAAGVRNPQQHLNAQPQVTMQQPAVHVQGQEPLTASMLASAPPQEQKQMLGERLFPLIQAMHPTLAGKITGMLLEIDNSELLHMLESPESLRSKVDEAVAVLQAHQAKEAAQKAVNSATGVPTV

[8] = molecular target: T2, Dual specificity protein phosphatase 3 (Homo sapiens, UniProt P51452); assay: SAR VHR1 Fluorescent Assay for In Vitro dose response studies. [Related pubchem assays (depositor defined):AID1654, AID1661, AID1878, AID1992, AID2004, AID2070, AID2085]; type: functional
T2 sequence (P51452 whole entry): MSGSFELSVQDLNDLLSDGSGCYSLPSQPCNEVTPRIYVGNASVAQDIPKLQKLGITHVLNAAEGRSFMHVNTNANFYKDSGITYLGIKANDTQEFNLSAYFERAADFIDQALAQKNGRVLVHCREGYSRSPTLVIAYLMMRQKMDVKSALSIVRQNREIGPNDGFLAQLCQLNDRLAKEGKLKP

[9] = molecular target: T3, Tyrosine-protein phosphatase non-receptor type 7 (Homo sapiens, UniProt P35236); type: functional
T3 sequence (P35236 whole entry): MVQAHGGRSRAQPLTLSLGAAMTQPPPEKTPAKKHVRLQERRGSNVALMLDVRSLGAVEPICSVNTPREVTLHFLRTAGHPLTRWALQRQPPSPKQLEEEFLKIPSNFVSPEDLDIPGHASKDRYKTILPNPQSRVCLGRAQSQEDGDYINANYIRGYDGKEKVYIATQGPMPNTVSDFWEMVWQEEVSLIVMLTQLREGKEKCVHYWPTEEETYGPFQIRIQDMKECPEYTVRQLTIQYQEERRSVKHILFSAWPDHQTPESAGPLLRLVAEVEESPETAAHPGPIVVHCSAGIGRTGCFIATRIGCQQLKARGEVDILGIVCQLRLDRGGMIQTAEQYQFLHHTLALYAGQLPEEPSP

[10] = molecular target: T2, Dual specificity protein phosphatase 3; assay: MOA VHR1 Fluorescent secondary assay for identification of redox-state modulating compounds. [Related pubchem assays (depositor defined):AID1654, AID1661, AID1878, AID1957]
[11] = molecular target: T3, Tyrosine-protein phosphatase non-receptor type 7; assay: redox-dependent HePTP inhibition, mechanism study, biochemical, fluorescence (AID 2068); type: functional
[12] = molecular target: Glyceraldehyde-3-phosphate dehydrogenase (Homo sapiens, UniProt P04406)
[13] = molecular target: T4, Dual specificity protein phosphatase 6 (Rattus norvegicus, UniProt Q64346); type: functional
T4 sequence (Q64346 whole entry): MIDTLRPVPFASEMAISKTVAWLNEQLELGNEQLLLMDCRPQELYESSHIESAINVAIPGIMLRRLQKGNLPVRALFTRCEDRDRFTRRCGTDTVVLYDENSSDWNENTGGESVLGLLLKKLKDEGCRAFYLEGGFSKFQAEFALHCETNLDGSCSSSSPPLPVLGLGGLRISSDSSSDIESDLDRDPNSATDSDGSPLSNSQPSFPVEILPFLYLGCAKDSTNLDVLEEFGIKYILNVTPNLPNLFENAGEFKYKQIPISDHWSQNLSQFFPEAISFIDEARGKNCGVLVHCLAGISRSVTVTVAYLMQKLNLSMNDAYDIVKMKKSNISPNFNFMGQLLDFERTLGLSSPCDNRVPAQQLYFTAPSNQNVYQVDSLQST

[14] = molecular target: T4, Dual specificity protein phosphatase 6
[15] = molecular target: T5, Zinc finger protein mex-5 (Caenorhabditis elegans, UniProt Q9XUB2); assay: MEX-5/TCR-2 RNA interaction inhibitors, dose response, biochemical, C. elegans, fluorescence polarization (AID 1960)
T5 sequence (Q9XUB2 whole entry): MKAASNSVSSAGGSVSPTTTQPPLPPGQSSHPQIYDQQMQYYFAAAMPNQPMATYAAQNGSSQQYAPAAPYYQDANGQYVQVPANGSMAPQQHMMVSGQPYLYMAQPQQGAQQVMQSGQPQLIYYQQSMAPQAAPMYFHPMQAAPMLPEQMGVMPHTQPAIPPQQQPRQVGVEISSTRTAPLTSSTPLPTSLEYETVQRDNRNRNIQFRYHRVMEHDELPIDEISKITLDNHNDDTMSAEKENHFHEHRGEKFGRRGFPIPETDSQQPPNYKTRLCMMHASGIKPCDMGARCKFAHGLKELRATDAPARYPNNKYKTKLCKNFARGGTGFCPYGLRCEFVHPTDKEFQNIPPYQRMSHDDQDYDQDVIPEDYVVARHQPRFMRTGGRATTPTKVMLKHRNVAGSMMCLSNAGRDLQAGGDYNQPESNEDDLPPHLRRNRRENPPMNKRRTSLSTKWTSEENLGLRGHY

Procathepsin L = Procathepsin L (Homo sapiens, UniProt P07711)
Procathepsin L, sequence (P07711 whole entry): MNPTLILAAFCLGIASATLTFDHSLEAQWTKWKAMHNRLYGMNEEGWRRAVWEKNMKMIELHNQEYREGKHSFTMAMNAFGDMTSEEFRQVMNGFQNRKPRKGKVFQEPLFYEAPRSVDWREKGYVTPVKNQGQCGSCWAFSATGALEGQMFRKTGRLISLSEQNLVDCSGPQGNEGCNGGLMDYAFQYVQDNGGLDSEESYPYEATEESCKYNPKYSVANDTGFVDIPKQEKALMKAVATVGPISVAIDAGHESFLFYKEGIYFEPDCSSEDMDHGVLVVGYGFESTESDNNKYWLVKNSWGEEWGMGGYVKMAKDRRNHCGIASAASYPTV

Mu-type opioid receptor = Mu-type opioid receptor (Homo sapiens, UniProt P35372); type: functional, cell-based;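 also: U2OS cells with beta-arrestin recruitment to OPRM1 by beta-gal complementation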
Mu-type opioid receptor, sequence (P35372 whole entry, the tested form may be a part): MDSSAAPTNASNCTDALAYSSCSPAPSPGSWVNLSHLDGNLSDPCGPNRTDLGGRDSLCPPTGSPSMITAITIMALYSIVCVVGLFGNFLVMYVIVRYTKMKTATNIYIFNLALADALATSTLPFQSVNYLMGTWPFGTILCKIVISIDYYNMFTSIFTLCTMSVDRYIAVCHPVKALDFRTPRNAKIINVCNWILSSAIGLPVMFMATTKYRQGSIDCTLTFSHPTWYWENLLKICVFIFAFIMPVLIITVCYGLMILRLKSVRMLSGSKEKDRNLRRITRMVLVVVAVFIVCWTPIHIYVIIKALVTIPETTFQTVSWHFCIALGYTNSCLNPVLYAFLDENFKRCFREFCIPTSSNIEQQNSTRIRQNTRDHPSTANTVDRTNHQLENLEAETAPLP

[16] = molecular target: T6, RNA-binding protein pos-1 (Caenorhabditis elegans, UniProt G5EF15); assay: inhibitors of POS-1/mex-3 RNA binding, dose response, biochemical, fluorescence polarization (AID 1964);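 also: purified POS-1 fused to maltose binding protein made in E. coli; potency of compounds blocking POS-1 binding to fluorescent RNA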
T6 sequence (G5EF15 whole entry): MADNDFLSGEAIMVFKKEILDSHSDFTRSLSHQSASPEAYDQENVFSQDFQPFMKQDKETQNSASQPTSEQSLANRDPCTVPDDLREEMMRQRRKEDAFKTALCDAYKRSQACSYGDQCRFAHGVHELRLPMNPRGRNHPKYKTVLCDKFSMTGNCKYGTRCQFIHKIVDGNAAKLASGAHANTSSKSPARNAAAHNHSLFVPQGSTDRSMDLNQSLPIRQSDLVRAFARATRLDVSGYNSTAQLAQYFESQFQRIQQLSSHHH

cells [17] = type: functional, cell-based
Aspartyl aminopeptidase = Aspartyl aminopeptidase (Plasmodium falciparum 3D7, UniProt Q8I2J3)
[18] = molecular target: 5-hydroxytryptamine receptor 2A (Mus musculus, UniProt P35363); type: functional, cell-based;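 also: CHO-K1 cells with tagged receptor and beta-arrestin; agonist potency measured as compound-induced activation of the receptor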
5-hydroxytryptamine receptor 2A, sequence (P35363 whole entry): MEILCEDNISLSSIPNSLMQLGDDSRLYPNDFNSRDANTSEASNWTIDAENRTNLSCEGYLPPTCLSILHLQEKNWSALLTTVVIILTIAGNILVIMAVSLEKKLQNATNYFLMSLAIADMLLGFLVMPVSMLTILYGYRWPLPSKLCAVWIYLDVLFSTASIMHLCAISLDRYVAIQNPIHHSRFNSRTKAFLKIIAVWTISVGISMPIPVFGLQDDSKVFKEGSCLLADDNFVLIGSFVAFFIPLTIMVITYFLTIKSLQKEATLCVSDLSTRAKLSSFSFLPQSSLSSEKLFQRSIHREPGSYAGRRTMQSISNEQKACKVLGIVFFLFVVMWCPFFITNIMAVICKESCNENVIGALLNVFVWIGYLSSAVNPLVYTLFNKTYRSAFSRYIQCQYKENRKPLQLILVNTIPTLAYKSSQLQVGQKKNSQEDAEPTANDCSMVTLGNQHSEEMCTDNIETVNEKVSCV

[19] = molecular target: FAD-linked sulfhydryl oxidase ALR (Homo sapiens, UniProt P55789); assay: inhibitors of human ALR sulfhydryl oxidase, dose response, biochemical, H2O2 detection, luminescence, cherry-pick (AID 493248)
FAD-linked sulfhydryl oxidase ALR, sequence (P55789 whole entry): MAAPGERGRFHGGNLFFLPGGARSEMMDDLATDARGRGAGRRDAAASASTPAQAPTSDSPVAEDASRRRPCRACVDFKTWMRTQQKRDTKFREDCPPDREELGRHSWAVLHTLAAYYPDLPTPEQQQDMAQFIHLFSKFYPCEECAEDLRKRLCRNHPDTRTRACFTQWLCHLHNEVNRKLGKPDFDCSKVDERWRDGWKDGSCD

cells [20] = type: functional, cell-based; remark: listed apart in the source
[21] = molecular target: T7, DNA repair and recombination protein RAD54-like (Homo sapiens, UniProt Q92698); assay: inhibitors of human RAD54 branch migration, confirmation, biochemical, fluorescence, cherry-picked samples, dose series (AID 651657); type: functional
T7 sequence (Q92698 whole entry): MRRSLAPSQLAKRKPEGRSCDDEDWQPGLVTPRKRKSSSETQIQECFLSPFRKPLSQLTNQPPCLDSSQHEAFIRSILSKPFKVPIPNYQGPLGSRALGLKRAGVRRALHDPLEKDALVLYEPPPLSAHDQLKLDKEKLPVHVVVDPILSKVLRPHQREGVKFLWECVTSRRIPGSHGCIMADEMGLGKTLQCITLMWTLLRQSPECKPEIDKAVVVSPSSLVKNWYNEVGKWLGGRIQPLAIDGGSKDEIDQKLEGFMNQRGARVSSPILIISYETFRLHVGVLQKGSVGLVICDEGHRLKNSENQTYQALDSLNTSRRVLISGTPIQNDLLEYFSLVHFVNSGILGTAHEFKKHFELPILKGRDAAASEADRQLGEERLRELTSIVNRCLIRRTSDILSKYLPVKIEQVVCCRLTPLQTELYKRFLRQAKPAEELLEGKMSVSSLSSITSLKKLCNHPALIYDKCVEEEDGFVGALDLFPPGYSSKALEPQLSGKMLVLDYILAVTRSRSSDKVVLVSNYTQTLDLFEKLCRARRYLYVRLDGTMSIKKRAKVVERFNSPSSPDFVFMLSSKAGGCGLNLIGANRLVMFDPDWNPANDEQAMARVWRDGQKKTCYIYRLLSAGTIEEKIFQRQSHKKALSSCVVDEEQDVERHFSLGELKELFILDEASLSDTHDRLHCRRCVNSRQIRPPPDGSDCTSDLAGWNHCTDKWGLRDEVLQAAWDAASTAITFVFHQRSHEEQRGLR

Large T antigen = Large T antigen (Simian virus 40, UniProt P03070); type: functional, Betapolyomavirus macacae;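 also: Confirmatory-stage PubChem screen for compounds that inhibit SV40 T antigen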
Large T antigen, sequence (P03070 whole entry): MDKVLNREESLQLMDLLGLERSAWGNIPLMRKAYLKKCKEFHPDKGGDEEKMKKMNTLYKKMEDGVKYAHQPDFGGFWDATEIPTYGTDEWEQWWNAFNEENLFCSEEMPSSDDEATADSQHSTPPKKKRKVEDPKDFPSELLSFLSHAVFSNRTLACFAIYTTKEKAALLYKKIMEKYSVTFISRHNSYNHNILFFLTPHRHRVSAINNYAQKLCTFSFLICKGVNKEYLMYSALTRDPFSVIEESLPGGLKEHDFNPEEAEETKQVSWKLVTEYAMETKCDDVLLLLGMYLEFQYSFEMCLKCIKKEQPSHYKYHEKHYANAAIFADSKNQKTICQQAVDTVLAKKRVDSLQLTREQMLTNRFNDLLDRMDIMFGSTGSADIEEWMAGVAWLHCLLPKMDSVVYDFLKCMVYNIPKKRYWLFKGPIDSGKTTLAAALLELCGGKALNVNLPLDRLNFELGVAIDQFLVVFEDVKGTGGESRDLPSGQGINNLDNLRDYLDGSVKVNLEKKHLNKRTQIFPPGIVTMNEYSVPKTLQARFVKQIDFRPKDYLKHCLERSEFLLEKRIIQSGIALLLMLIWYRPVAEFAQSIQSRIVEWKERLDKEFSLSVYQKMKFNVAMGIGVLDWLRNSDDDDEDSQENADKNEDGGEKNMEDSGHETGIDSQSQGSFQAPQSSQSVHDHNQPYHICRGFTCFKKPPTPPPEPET

HeLa = assay: HeLa cell cytotoxicity, dose response, cytotoxicity control, 24 h, cherry-picked samples (AID 504726); type: functional, cell-based; settings: Homo sapiens;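 also: potency for cytotoxicity as loss of luminescence signal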
Protein Wnt-3a = Protein Wnt-3a (Mus musculus, UniProt P27467); assay: Wnt3a-driven reporter signaling inhibition, dose response, selectivity assay for Gli-SUFU antagonist project, Wnt-LIGHT cells, luminescence (AID 651570); type: functional; settings: read-out: IC50_Mean;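 also: Wnt-LIGHT reporter cells stimulated with conditioned medium from Wnt3a-producing cells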
Protein Wnt-3a, sequence (P27467 whole entry): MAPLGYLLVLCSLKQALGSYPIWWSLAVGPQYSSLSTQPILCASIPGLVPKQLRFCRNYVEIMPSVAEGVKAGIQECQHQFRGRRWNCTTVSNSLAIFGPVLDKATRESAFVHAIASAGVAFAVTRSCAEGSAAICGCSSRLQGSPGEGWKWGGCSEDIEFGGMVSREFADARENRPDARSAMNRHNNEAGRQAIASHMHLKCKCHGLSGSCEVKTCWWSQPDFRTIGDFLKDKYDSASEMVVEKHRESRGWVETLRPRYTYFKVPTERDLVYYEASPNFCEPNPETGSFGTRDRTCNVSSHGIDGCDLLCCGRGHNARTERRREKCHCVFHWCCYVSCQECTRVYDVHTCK

[22] = Shn3 3'UTR reporter inhibitors, dose response, cell-based, Clone20 osteoblasts, firefly luciferase, cherry-picked (AID 624132); type: functional;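 also: firefly luciferase luminescence from reporter carrying the Shn3 3'UTR in osteoblasts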
[23] = HepG2 cell cytotoxicity, dose response, cytotoxicity control for Shn3 inhibitor project, CellTiter-Glo, cherry-picked (AID 624134); type: functional, cell-based
Oxytocin receptor = Oxytocin receptor (Homo sapiens, UniProt P30559); assay: Fluorescence-based cell-based high throughput dose response assay for agonists of the Oxytocin Receptor (OXTR). [Related pubchem assays: 2435 (Primary screen (OXTR agonists in singlicate)), 434991 (Counterscreen (V1R agonists in triplicate)), 2482 (Summary (OXTR agonists)), 434963 (Confirmation screen (OXTR agonists in triplicate))]; type: functional
Oxytocin receptor, sequence (P30559 whole entry): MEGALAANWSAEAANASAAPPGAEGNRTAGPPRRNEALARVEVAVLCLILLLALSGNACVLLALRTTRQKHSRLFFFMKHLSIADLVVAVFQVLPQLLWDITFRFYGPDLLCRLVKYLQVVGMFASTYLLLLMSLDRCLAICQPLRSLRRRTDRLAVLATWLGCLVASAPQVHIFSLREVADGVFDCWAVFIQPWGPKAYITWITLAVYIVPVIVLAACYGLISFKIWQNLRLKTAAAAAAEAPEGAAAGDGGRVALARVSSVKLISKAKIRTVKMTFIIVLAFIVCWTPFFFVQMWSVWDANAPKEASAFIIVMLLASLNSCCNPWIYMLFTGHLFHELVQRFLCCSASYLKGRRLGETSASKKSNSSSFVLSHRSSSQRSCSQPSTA

Vasopressin V1a receptor = Vasopressin V1a receptor (Homo sapiens, UniProt P37288); assay: Counterscreen for Oxytocin Receptor (OXTR) agonists: Fluorescence-based cell-based high throughput dose response assay to identify agonists of the vasopressin 1 receptor (V1R). [Related pubchem assays: 2435 (Primary screen (OXTR agonists in singlicate)), 434991 (Counterscreen (V1R agonists in triplicate)), 2482 (Summary (OXTR agonists)) …; type: functional
Vasopressin V1a receptor, sequence (P37288 whole entry): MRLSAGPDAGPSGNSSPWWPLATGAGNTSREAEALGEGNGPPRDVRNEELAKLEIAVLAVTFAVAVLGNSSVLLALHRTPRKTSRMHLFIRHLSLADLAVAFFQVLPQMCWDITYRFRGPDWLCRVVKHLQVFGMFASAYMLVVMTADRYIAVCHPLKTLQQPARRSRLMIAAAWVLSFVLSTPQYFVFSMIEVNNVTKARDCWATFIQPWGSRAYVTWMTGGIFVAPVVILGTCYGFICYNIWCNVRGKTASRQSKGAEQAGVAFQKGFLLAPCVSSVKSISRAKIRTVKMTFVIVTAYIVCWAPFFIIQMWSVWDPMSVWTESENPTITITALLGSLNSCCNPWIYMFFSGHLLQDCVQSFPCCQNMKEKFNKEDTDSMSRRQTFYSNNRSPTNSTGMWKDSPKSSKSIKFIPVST

[24] = control 3'UTR Renilla luciferase suppression, dose response, counter-screen for Shn3 inhibitor project, cell-based, Clone20-Shn3RL, cherry-picked (AID 624133); type: functional

## O=C(NC(=S)Nc1ccccc1N1CCCC1)c1ccccc1Br
[1]
  EC50: 32.3 µM (active)
Streptococcus [2]
  EC50: > 500 µM (not active)
Streptokinase A
  EC50: 6.61 µM (active)
Streptococcus [3]
  EC50: > 150 µM (not active)

## Clc1ccc(CN(Cc2ccc(Cl)cc2)c2nnn[nH]2)cc1
[4]
  IC50: > 14.6 µM (not active)
[5]
  IC50: > 14.6 µM (not active)

## CCc1ccc(NS(=O)(=O)c2ccc(C)c(C(=O)N3CCOCC3)c2)cc1
[6]
  IC50: > 100 µM (inactive)
[7]
  IC50: 6.21 µM (active)

## O=c1/c(=C/c2ccc(-c3cc(Cl)cc(Cl)c3)o2)sc2nc3cc(Br)cnc3n12
[8]
  IC50: 8.81 µM (active)
[9]
  IC50: > 100 µM (not active)
[10]
  IC50: 2.23 µM (active)
[11]
  IC50: 1.15 µM (active)
[12]
  IC50: > 100 µM (not active)
[13]
  IC50: > 100 µM (inactive)
[14]
  IC50: > 100 µM (inactive)

## Oc1ccc(CCNc2c3ccccc3nc3ccccc23)cc1O
[15]
  EC50: 10.1 µM (active)
Procathepsin L
  IC50: > 59.6 µM (not active)
Mu-type opioid receptor
  EC50: 92.5 µM (inactive)
[16]
  EC50: > 300 µM (not active)
Cells [17]
  EC50: > 350 µM (not active)
Aspartyl aminopeptidase
  IC50: 2.49 µM (active)
[18]
  EC50: 76.1 µM (inactive)
[19]
  AC50: 2.76 µM (active)
Cells [20]
  EC50: > 350 µM (not active)
[21]
  AC50: 1.87 µM (active)
Large T antigen
  IC50: 8.41 µM (active)

## COC(=O)c1ccc(Oc2nc(Nc3ccc(F)cc3)nc(N3CCCC3)n2)cc1
HeLa
  AC50: 289 µM (active)

## COc1ccc(CNc2[nH]cnc3c4ccccc4nc2-3)cc1
Protein Wnt-3a
  IC50: 12.4 µM (active)
[22]
  AC50: 4.19 µM (active)
[23]
  AC50: 28 µM (active)
Oxytocin receptor
  EC50: 27.4 µM (not active)
Vasopressin V1a receptor
  EC50: > 29.9 µM (not active)
[24]
  AC50: 5.89 µM (active)
